Where two headings read alike, the source gives them in different places.
Key:
PRK surgery patients = assay: PRK clinical study, ocular safety assessments and vital signs; type: in vivo, human
Source text: Adverse events and serious adverse events included an assessment of both systemic and ocular assessments. Systemic safety assessments included regular assessments of height and weight, vital signs, reporting medication errors including misuse/abuse, pregnancy reporting and early phase safety monitoring. The misuse/abuse, pregnancy reporting and early phase safety monitoring were not assessed for the study. Ocular safety assessments included the following: • Best-corrected visual acuity (BCVA) and uncorrected visual acuity (UCVA): Was measured at each visit using an ETDRS visual acuity chart at 4 meters (13 feet) or 1 meter (for patients that cannot read the 4 meter chart). The BCVA scoring was done based on the number of correctly read letters plus 30. If visual acuity was so poor that the patient could not read any of the largest letters at 1 meter, count fingers and hand movement vision and light perception was tested. • Intraocular Pressure (TOP): IOP measurements were conducted with applanation tonometry or Tonopen. • Dilated fundus exam: The dilated fundus examination included ophthalmoscopic assessments of the vitreous, retina/macula/choroid, and optic nerve. Evaluations for retinal tear/detachment, retinal hemorrhage, vitreous hemorrhage density, vitreous haze grading and abnormal findings were done and scored according to grading criteria. • Ocular hyperemia: Conjunctival redness of the bulbar conjunctiva in each eye at the slit lamp according to the McMonnies redness scale was graded. […] By adjusting the calibrated slit beam width and height, the maximum horizontal (wound width) and vertical dimensions (wound height) of the surgical epithelial wound was estimated. The evaluation was performed until wound closure and report of wound size as 0 horizontal and 0 vertical dimensions. • Slit-lamp biomicroscopy: Ocular signs (eyelids/conjunctiva, cornea, lens, and iris/anterior chamber) was assessed in both eyes by slit lamp biomicroscopy according to the grading criteria. • Blink rate: A blink was defined as a bilateral paroxysmal closure of the eyelids (duration <1 second) in the absence of a provoking external stimulus. Each blink assessment lasted for 2 min (or as close to 2 minutes as possible with minimum time 1 minute) and the obtained blink rate was averaged to calculate blink rate in blinks/min. • Tear production (Schirmer's test without anesthesia): The test was performed without anesthetic in both eyes simultaneously. Tear secretion was measured in millimeters of the length of strip wetted by tears. […] The strip was wetted with 1 drop of sterile saline and flicked to remove excess saline. The patient blinked several times to ensure dispersion of the dye throughout the tear film prior to grading on a scale of 0-3 (0=Normal, No staining; 1=Mild, Superficial stippling micropunctate staining; 2=Moderate, Macropunctate staining with some coalescent areas and 3=Severe, Numerous coalescent macropunctate areas and/or patches) for each of 5 zones (central plus 4 quadrants).

[1] = PRK clinical study, plasma pharmacokinetics of compound I (LC-MS/MS); type: in vivo, human
Protocol: Pharmacokinetic (PK) samples were collected at the time points defined in the visit schedule supra, with PK blood collection windows shown in Table 27.
All blood samples (3 mL) were taken from the arm by either direct venipuncture or an indwelling catheter inserted in a forearm vein. After each tube of blood was drawn, it was immediately inverted gently 8-10 times to ensure the mixing of tube contents with anticoagulant (3 mL K2 EDTA). Prolonged sample contact with the rubber stopper was avoided and the tubes were placed upright in a test tube rack surrounded by wet ice until centrifugation.
Within 30 minutes, the sample was centrifuged at about 5° C. for 10 minutes at approximately 2000 G (or the sample was placed on ice and centrifuged at room temperature). Immediately after centrifugation, the whole supernatant (approx. 1.5 mL) was transferred in the first 1.8 mL NUNC 2D barcoded cryovial. After mixing the plasma thoroughly, half of the plasma was transferred from the first cryovial to the second cryovial and the caps were secured. Appropriate PK cryolabels were attached to each cryovial and the labels were secured with clear tape. The cryovials were frozen immediately over dry ice then, kept frozen at ≤−20° C. until shipment to the central lab. The vials were shipped in biweekly batches.
Compound I was quantified in plasma using a validated LC-MS/MS method; the lower limit of quantification (LLOQ) was 0.05 ng/mL. Concentrations were expressed in ng per mL units. When feasible, bandage contact lenses (BCL) exposed to study drug were collected and analyzed for residual drug exposure after treatment (LLOQ: 5.00 ng/mL in 0.55 mL of extraction fluid, or 2.75 ng/BCL). Concentrations below the LLOQ were reported as “zero” and missing data were labeled as such.
The following PK parameters were determined as relevant using the actual recorded sampling times and non-compartmental method with Phoenix™ WinNonlin® (Version 6.4): Cmax, Tmax, AUClast (calculated), Clast and Tlast from the plasma concentration-time data. Pre-dose concentrations were determined by inspection at nominal 0, 24 and 72 hours. The linear trapezoidal rule was used for AUClast calculation. No PK parameters were calculated from the bandage contact lenses compound I concentration data.

[2] = across the scheduled time points
[3] = Day 1, plasma, topical ocular 2.5% compound I
[4] = Day 4, plasma, topical ocular 2.5% compound I
[5] = human, plasma, topical, 2.5 %, 4 days

SMILES: CC(C)c1nc2cc(O)ccc2c(=O)n1-c1ccc(C#N)cc1 [Compound I, 4-(7-hydroxy-2-isopropyl-4-oxo-4H-quinazolin-3-yl)-benzonitrile]
- Ocular hyperemia, grade 4 (McMonnies scale), versus Vehicle (PRK surgery patients; Day 2 postoperatively (24 hours after PRK surgery), all quadrants): less grade 4 hyperemia
- Ocular hyperemia, grade 3 (McMonnies scale), versus Vehicle (PRK surgery patients; Day 3 (48 hours post-operative)): less grade 3 hyperemia
- Dilated fundus exam (PRK surgery patients; [2]): No abnormal findings
- Slit-lamp biomicroscopy: aqueous flare, inflammatory cell grade, iris/anterior chamber, lens (PRK surgery patients; [2]): No abnormalities were observed
- Corneal staining versus Vehicle (PRK surgery patients; baseline, Day 8, EOS visit): No clinical differences were observed
- vital sign parameters (PRK surgery patients; during the study): within the normal range
- BCVA and UCVA versus Vehicle (PRK surgery patients; throughout the study): did not result in any trend or obvious difference
- Blink rate versus Vehicle (PRK surgery patients; throughout the study): no trend across the scheduled time points or obvious differences
- Intraocular pressure versus Vehicle (PRK surgery patients; throughout the study): No trend across the scheduled time points or obvious differences
- Median Tlast [1, 3]: 2.00 h
- Tlast (range) [1, 3]: 1.95 to 2.05 h
- Median Tlast [1, 4]: 2.00 h
- Tlast (range) [1, 4]: 1.77 to 2.10 h
- Day 1 pre-dose plasma concentrations ([1]; LLOQ 0.05 ng/mL): below the limit of quantitation
- Tmax ([1]; human, plasma, topical or ocular, 2.5 %, after either single (first dose) or repeated 4 times daily topical ocular administration, read-out: median plasma Tmax): ~30 min
- Tmax ([1]; human, plasma, topical or ocular, 2.5 %, after the first dose (Day 1), unilateral topical ocular 2.5%, read-out: median Tmax, plasma): 27.5 min
- AUC(0-t) ([1]; human, plasma, topical or ocular, 2.5 %, max, profile day 1, plasma, topical ocular 2.5% compound I, read-out: AUClast): 1.58 ng·h/mL
- Cmax ([1]; human, plasma, topical or ocular, 2.5 %, max, profile day 1, plasma, topical ocular 2.5% compound I, read-out: Cmax): 1.05 ng/mL
- Tmax ([1]; human, plasma, topical or ocular, 2.5 %, max, profile day 1, plasma, topical ocular 2.5% compound I, read-out: Tmax): 120 min
- AUC(0-t) ([1]; human, plasma, topical or ocular, 2.5 %, max, profile day 4, plasma, topical ocular 2.5% compound I, read-out: AUClast): 14.5 ng·h/mL
- Cmax ([1]; human, plasma, topical or ocular, 2.5 %, max, profile day 4, plasma, topical ocular 2.5% compound I, read-out: Cmax): 7.56 ng/mL
- Tmax ([1]; human, plasma, topical or ocular, 2.5 %, max, profile day 4, plasma, topical ocular 2.5% compound I, read-out: Tmax): 125 min
- Cmax ([1]; human, plasma, topical or ocular, 2.5 %, mean, profile day 1 (first dose), plasma, topical ocular 2.5% compound I, PK analysis set, read-out: Cmax): 0.454 ng/mL
- AUC(0-t) ([1]; human, plasma, topical or ocular, 2.5 %, mean, profile day 1, plasma, topical ocular 2.5% compound I, read-out: AUClast): 0.638 ng·h/mL
- Cmax ([1]; human, plasma, topical or ocular, 2.5 %, mean, profile day 4 (13th dose, QID), plasma, topical ocular 2.5% compound I, read-out: Cmax): 2.4 ng/mL
- AUC(0-t) ([1]; human, plasma, topical or ocular, 2.5 %, mean, profile day 4, plasma, topical ocular 2.5% compound I, read-out: AUClast): 4.38 ng·h/mL
- AUC(0-t) ([1]; human, plasma, topical or ocular, 2.5 %, median, profile day 1, plasma, topical ocular 2.5% compound I, read-out: AUClast): 0.569 ng·h/mL
- Cmax ([1]; human, plasma, topical or ocular, 2.5 %, median, profile day 1, plasma, topical ocular 2.5% compound I, read-out: Cmax): 0.375 ng/mL
- Tmax ([1]; human, plasma, topical or ocular, 2.5 %, median, profile day 1, plasma, topical ocular 2.5% compound I, read-out: Tmax): 27.5 min
- AUC(0-t) ([1]; human, plasma, topical or ocular, 2.5 %, median, profile day 4, plasma, topical ocular 2.5% compound I, read-out: AUClast): 3.42 ng·h/mL
- Cmax ([1]; human, plasma, topical or ocular, 2.5 %, median, profile day 4, plasma, topical ocular 2.5% compound I, read-out: Cmax): 2.07 ng/mL
- Tmax ([1]; human, plasma, topical or ocular, 2.5 %, median, profile day 4, plasma, topical ocular 2.5% compound I, read-out: Tmax): 28 min
- AUC(0-t) ([1]; human, plasma, topical or ocular, 2.5 %, min, profile day 1, plasma, topical ocular 2.5% compound I, read-out: AUClast): 0.261 ng·h/mL
- Cmax ([1]; human, plasma, topical or ocular, 2.5 %, min, profile day 1, plasma, topical ocular 2.5% compound I, read-out: Cmax): 0.195 ng/mL
- Tmax ([1]; human, plasma, topical or ocular, 2.5 %, min, profile day 1, plasma, topical ocular 2.5% compound I, read-out: Tmax): 10 min
- AUC(0-t) ([1]; human, plasma, topical or ocular, 2.5 %, min, profile day 4, plasma, topical ocular 2.5% compound I, read-out: AUClast): 1.18 ng·h/mL
- Cmax ([1]; human, plasma, topical or ocular, 2.5 %, min, profile day 4, plasma, topical ocular 2.5% compound I, read-out: Cmax): 0.639 ng/mL
- Tmax ([1]; human, plasma, topical or ocular, 2.5 %, min, profile day 4, plasma, topical ocular 2.5% compound I, read-out: Tmax): 0 min
- Cmax ([1]; human, plasma, topical, 2.5 %, 13th dose on Day 4, read-out: Arithmetic mean plasma Cmax): 2.4 ng/mL
- AUC(0-t) ([1]; human, plasma, topical, 2.5 %, 13th dose on Day 4, read-out: mean plasma AUClast): 4.38 ng·h/mL
- mean AUClast Day 4 versus Day 1 [1, 5]: 6.9 fold
- mean Cmax Day 4 versus Day 1 [1, 5]: 5.3 fold
- Cmax ([1]; human, plasma, topical, 2.5 %, across 4 days of repeated QID dosing, read-out: observed plasma Cmax, range): 0.195 to 7.56 ng/mL
- AUC(0-t) ([1]; human, plasma, topical, 2.5 %, across 4 days of repeated QID dosing, read-out: plasma AUClast, range): 0.261 to 14.5 ng·h/mL
- Tmax ([1]; human, plasma, topical, 2.5 %, after the 13th dose (Day 4), read-out: median Tmax, plasma): 28 min
- Cmax ([1]; human, plasma, topical, 2.5 %, first dose on Day 1, read-out: Arithmetic mean plasma Cmax): 0.454 ng/mL
- AUC(0-t) ([1]; human, plasma, topical, 2.5 %, first dose on Day 1, read-out: mean plasma AUClast): 0.638 ng·h/mL
- concentration at 24 hr ([1]; human, plasma, topical, 2.5 %, prior to the 5th dose on Day 2 (24 hr post 1st dose), read-out: Trough mean plasma concentration): 1.25 ng/mL
- concentration at 72 hr ([1]; human, plasma, topical, 2.5 %, prior to the 13th dose on Day 4 (72 hr post 1st dose), read-out: Trough mean plasma concentration): 1.99 ng/mL

Reference: patent US20200390767A1, “Formulations of 4-(7-Hydroxy-2-isopropyl-4-oxo-4H-quinazolin-3-yl)-benzonitrile” (NOVARTIS AG, priority 2019, published 2020)
